# Key:
# [1] = target: T1, CCR2 (Homo sapiens, UniProt P41597); test: NanoBRET screen HiBiT-CCR2 in HEK293; type: binding
# T1 construct: purchased Promega (in-house HiBiT-GPCR construct library, NanoBRET)
# Protocol: (§1) Each tracer candidate was screened across the entire library of HiBiT-GPCR constructs using NanoBRET as the detection modality. As depicted in Figure 4A, the specificity of interactions was evaluated through decrease in BRET due to competitive displacement of a bound tracer by excess parental compound. Each tracer was analyzed for binding to each HiBiT-GPCR fusion in the absence and in the presence of competing parental compound. Briefly, HEK293 cells were transfected with HiBiT-GPCR constructs diluted into promoterless DNA to reduce expression and maximize translocation to the cell surface. Each tracer candidate was then screened at concentrations of 1 μM and 0.1 μM across cells expressing these fusions. Cells were treated for 1.5 h with tracer either alone or in the presence of 20 μM competing parental compound (i.e., control). BRET was measured upon addition of purified LgBiT and subsequent complementation with HiBiT genetically fused to a GPCR. The specificity of interactions was assessed through a decrease in BRET signal due to competitive displacement of the bound tracer. To further gauge the robustness of these interactions, the fold response over the control (i.e., BRETtracer/BRETcontrol) was calculated. We chose a 1.5-fold response, which translates to ≥7-fold signal over noise as the minimal threshold required to score an interaction as positive. […]. Below we highlight the screening results obtained for our exemplary fluorescent tracers based on Clozapine, Amitriptyline and AZD1283.
# (§2) HiBiT-GPCR DNA constructs were diluted in 10 mM Tris pH 8 to a final concentration of 0.01 μg/μL, arrayed in 96-well plates and stored at −20 °C. For transfection, HEK293 cells were suspended in Opti-MEM (without phenol red) supplemented with 2% fetal bovine serum (Seradigm) and 100 units/mL penicillin–streptomycin (Gibco) at a final concentration of 220,000 cells/mL and dispensed into white 96-well plates at 90 μL/well. Subsequent transfections and screens were carried using an Agilent Bravo Automated Liquid Handling Platform. First, the 96-well HiBiT DNA arrays were diluted 25-fold in Opti-MEM (without serum or phenol red) to a final concentration of 0.0004 μg/μL and 20 μL of the diluted DNAs were transferred into new 96-well plates. Next, promoterless carrier DNA (1 μg/μL) was diluted 25-fold (0.04 μg/μL) and then dispensed into the diluted arrays at 20 μL/well. Following brief mixing, Viafect transfection reagent (Promega) diluted 16-fold into Opti-MEM was dispensed into the plates at 40 μL/well. After mixing by pipetting, plates were incubated for 10 min on the pipetting station deck. The DNA-transfection reagent complexes were then added to plates containing cells. To facilitate the screen, 10 μL of DNA-transfection reagent complexes were added in duplicates to the top 4 and bottom 4 rows, resulting in two identical 48-well arrays per plate. Plates with transfected cells were incubated for 18–20 h at 37 °C/5% CO2. A screen of each tracer across the entire library using two different concentrations requires duplicate plates of transfected cells. Depending on the number of tracers being screened, transfections can be scaled up using the same ratios. The next day, for each tracer, four 20× screening solutions in tracer dilution buffer (Promega) were prepared: two duplicates at final concentration of 20 μM and two duplicates at a final concentration of 2 μM. A competing unmodified compound was added to one of each duplicate at a final concentration of 400 μM. The four resulting solutions were diluted 4-fold in Opti-MEM without serum or phenol red to generate 5× solutions (5 µM and 0.5 µM tracer +/− 100 μM competing compound). To screen the library, a BioTek MultiFlo FX liquid dispenser was used to dispense 22.5 µL of tracer solution to the top 4 rows and 22.5 µL tracer + competing compound solution to the 4 bottom rows. Plates were briefly mixed on an orbital shaker and incubated for 1.5 h at room temperature. […]
# [2] = target: T2, FSHR (Homo sapiens, UniProt P23945); test: NanoBRET screen HiBiT-FSHR in HEK293; type: binding
# T2 construct: purchased Promega (in-house HiBiT-GPCR construct library, NanoBRET)
# T2 sequence (P23945 18-695): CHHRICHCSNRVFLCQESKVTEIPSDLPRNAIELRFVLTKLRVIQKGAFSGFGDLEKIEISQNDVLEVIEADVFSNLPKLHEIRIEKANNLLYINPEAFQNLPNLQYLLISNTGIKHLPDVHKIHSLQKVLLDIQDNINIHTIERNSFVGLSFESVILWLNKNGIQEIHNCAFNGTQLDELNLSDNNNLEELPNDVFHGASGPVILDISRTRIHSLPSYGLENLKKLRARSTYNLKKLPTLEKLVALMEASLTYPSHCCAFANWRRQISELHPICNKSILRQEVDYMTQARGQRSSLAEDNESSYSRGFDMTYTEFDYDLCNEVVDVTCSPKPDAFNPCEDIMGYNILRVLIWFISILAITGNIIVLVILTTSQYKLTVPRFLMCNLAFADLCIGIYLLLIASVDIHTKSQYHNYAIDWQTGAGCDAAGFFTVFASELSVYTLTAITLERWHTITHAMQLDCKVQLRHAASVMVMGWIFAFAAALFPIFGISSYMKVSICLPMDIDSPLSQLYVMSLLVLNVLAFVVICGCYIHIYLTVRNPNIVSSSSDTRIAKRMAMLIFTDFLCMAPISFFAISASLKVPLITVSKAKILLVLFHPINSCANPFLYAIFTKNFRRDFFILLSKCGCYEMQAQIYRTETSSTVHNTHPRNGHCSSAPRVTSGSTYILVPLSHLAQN
# Protocol: as §1, §2
# T1 sequence (P41597 whole entry): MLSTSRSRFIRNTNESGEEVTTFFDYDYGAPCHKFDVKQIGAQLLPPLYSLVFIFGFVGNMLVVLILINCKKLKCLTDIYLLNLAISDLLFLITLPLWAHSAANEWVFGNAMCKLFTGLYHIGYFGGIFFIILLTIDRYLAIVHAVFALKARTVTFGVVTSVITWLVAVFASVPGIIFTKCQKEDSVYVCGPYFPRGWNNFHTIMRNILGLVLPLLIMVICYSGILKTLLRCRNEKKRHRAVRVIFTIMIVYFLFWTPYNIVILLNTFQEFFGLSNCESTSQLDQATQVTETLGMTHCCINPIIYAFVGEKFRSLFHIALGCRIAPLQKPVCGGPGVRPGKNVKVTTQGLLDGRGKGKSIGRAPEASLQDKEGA
Structure (SMILES),"NanoBRET Fold Response ([1]; CCR2, tracer 0.1μM)","NanoBRET Fold Response ([1]; CCR2, tracer 1μM)","NanoBRET Fold Response ([2]; FSHR, tracer 0.1μM)","NanoBRET Fold Response ([2]; FSHR, tracer 1μM)",also measured
COc1ccccc1N1CCN(CCCCN2C(=O)c3ccc(CNC(=O)CCOCCOCCOCCOCCNC(=O)CCc4ccc5n4[B-](F)(F)[N+]4=C(c6ccc[nH]6)C=CC4=C5)cc3C2=O)CC1 [NAN-190-2-NB590],1.04,1.00,0.97,0.97,
O=C(CCOCCOCCOCCOCCNC(=O)CCc1ccc2n1[B-](F)(F)[N+]1=C(c3ccc[nH]3)C=CC1=C2)NCCCN1CCN(C2=Nc3ccccc3Oc3ccc(Cl)cc32)CC1 [Loxapine-a-2-NB590],0.97,0.81,0.98,1.16,
CCCn1c(=O)c2[nH]c(-c3ccc(OCC(=O)NCCNC(=O)CCOCCNC(=O)c4ccc(CNC(=O)CCc5ccc6n5[B-](F)(F)[N+]5=C(c7ccc[nH]7)C=CC5=C6)cc4)cc3)nc2n(CCC)c1=O [XAC-3-NB590],1.08,1.61,1.18,1.04,
CN(C)CCC=C1c2ccccc2CCc2ccc(C(=O)NCCNC(=O)CCOCCOCCOCCOCCNC(=O)CCc3ccc4n3[B-](F)(F)[N+]3=C(c5ccc[nH]5)C=CC3=C4)cc21 [Amitriptyline-a-2-NB590],,,,,NanoBRET Fold Response ([1]; tracer at 0.1μM): 1.19; NanoBRET Fold Response ([1]; tracer at 1μM): 1.05; NanoBRET Fold Response ([2]; tracer at 0.1μM): 1.02; NanoBRET Fold Response ([2]; tracer at 1μM): 1.06
CCOC(=O)c1cc(C#N)c(N2CCC(C(=O)NS(=O)(=O)Cc3ccccc3/C=C/C(=O)NCCNC(=O)CCc3ccc4n3[B-](F)(F)[N+]3=C(c5ccc[nH]5)C=CC3=C4)CC2)nc1C [AZD1283-1-NB590],,,,,"NanoBRET Fold Response ([1]; CCR2, 0.1μM): 0.93; NanoBRET Fold Response ([1]; CCR2, 1μM): 1.04; NanoBRET Fold Response ([2]; FSHR, 0.1μM): 0.99; NanoBRET Fold Response ([2]; FSHR, 1μM): 1.03"

# From PMC8151276, “An Integrated Approach toward NanoBRET Tracers for Analysis of GPCR Ligand Engagement” (Molecules, 2021)
